Like-named read-outs stand apart in the source and are kept apart here.
Assays:
[1] = target: T1, NIT1 (Arabidopsis thaliana, UniProt P32961); details: cited from earlier work
T1 sequence (P32961 1-346): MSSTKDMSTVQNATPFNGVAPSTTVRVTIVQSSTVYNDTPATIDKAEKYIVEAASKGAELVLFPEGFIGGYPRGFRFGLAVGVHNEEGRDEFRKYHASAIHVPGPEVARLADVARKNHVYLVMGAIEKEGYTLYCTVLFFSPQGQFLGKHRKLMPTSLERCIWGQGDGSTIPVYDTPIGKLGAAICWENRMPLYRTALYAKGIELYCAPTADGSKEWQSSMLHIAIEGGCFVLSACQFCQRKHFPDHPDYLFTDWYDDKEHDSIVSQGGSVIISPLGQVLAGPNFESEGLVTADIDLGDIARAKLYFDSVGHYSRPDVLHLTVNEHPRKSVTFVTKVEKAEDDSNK

[2] = target: T2, NIT2 (Arabidopsis thaliana, UniProt P32962); details: cited from earlier work
T2 sequence (P32962 1-339): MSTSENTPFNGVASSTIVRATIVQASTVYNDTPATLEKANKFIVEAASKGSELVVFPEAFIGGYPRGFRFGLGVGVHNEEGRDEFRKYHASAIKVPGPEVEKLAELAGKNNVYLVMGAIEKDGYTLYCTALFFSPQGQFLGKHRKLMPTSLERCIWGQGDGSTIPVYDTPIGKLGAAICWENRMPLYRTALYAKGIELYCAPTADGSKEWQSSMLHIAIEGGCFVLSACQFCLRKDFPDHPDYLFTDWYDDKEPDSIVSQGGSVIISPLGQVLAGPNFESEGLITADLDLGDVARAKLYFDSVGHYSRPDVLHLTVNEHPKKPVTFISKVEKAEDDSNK

[3] = test system: Arabidopsis seedlings; experiment: Seedling growth on media supplemented with IAN (auxin phenotype); type: in vivo
From the text: Four nitrilases, differentially expressed during development and in response to environmental cues, catalyze hydrolysis of IAN to IAA in Arabidopsis (Bartel and Fink (1994) Proc. Natl. Acad. Sci. USA 91:6649-6653). The nitl mutant is insensitive to the auxin effects of exogenously applied IAN at the seedling stage (Normanly et al. (1997) Plant Cell 9:1781-1790). In accordance with the observed insensitivity of nit1 seedlings to IAN, NIT1 is most strongly expressed in the hypocotyl near the junction with the root in young seedlings as well as in the cotyledons. In contrast, NIT2 and NIT3 are expressed primarily in the cotyledons and NIT4 is expressed in the root tip (Bartel and Fink (1994) Proc. Natl. Acad. Sci. USA 91:6649-6653).

[4] = test system: wild type seedlings; experiment: Indole glucosinolate levels in seedlings grown on MS agar, quantified colorimetrically as SCN; type: in vivo, Arabidopsis; details: wild type seedlings germinated on MS media with 100 μM tryptamine; two week old; n=10
Description: FIG. 6. Indole glucosinolate levels are affected by CYP83B1 expression. Indole glucosinolates in individual two week old seedlings grown on MS agar were quantified calorimetrically as SCN. 1) Wild type, 2) rnt1-1, 3) molecularly complemented line 3.25.11, 4) overexpression line 1.4.7, and 5) wild type grown on 100 μM tryptamine. Data are represented as the mean ±S.E, (n=10 seedlings). Except for the molecularly complemented line 3.25.11, mean indole glucosinolate values all differ from wild type seedling values at a 1% confidence value (t-test).
Tryptophan-derived indole-3-acetaldoxime is also an intermediate in the biosynthesis of indole glucosinolates.

[5] = target: T3, CYP83B1 (Arabidopsis thaliana, UniProt O65782); experiment: CYP83B1 catalysis of [5-3H]indole-3-acetaldoxime metabolism (Km, Vmax, inhibition; TLC / scintillation counting)
T3 sequence (O65782 1-499): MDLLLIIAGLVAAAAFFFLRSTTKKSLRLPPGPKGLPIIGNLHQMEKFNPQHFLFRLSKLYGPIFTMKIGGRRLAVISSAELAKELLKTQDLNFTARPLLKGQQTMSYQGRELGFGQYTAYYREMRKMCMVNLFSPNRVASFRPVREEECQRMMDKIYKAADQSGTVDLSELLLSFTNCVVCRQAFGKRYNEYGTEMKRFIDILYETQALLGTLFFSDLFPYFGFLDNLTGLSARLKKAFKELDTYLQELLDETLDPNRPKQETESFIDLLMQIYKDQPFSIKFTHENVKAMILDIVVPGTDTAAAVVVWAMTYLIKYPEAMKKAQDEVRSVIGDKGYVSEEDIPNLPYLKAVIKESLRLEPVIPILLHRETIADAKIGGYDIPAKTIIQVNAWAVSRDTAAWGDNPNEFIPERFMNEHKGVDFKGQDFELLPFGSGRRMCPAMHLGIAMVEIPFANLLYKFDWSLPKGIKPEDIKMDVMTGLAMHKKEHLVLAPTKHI
Description: (§1) FIG. 3. (A) Analysis of CYP83B1 by optical difference spectroscopy. […] After incubation for 10 min at 28° C., reaction mixtures were extracted with ethylacetate and analyzed by TLC. (s) substrate, (p) product.
After incubation, reaction mixtures were stopped by adding SDS to 0.4% and were analyzed by thin layer chromatography (TLC). TLC plates were developed in chloroform/methanol/water (85:14:1) and radioactive bands visualized by autoradiography.
Reactions were stopped and extracted with ethylacetate. Aliquots of the substrate-containing ethylacetate phase and product-containing water phase were subjected to liquid scintillation counting.

[6] = target: T3, CYP83B1; experiment: Spectral analysis (optical difference spectroscopy) of ligand binding to heterologously expressed CYP83B1 in yeast microsomes
Description: as §1

[7] = substrate: ON=CCc1c[nH]c2ccccc12; experiment: purified protein, by the assay type; details: other: in the presence of cysteine, 2.2 nM CYP83B1, 1 min at 28 °C, estimated, pH 7.6

In the case of `N#CCc1c[nH]c2ccccc12` [IAN, indole-3-acetonitrile], the “Km for IAN hydrolysis” value [1] is listed as “in the mM range”, the “Km for IAN hydrolysis” value [2] is listed as “in the mM range” and the “effect on rnt1-1 seedlings (germination)” value ([3]; rnt1-1 seedlings grown on 50 μM IAN) is listed as “almost completely inhibiting germination”. The “phenotype of wild type seedlings” value ([3]; wild type Arabidopsis seedlings on media with 50 μM IAN) was “phenocopy rnt1-1 seedlings”.

With `NCCc1c[nH]c2ccccc12` [tryptamine] the “indole glucosinolate levels compared to wild type seedlings” value [4] was “reduced levels”, the “inhibition of CYP83B1 catalysis (indole-3-acetaldoxime oxidation)” value ([5]; 22 nM CYP83B1, 35 μM [5-3H]indole-3-acetaldoxime, 17.5 mM tryptamine, 10 min at 28 °C, TLC (FIG. 3B)) was “inhibitor” and the “type of binding spectrum caused” value ([6]; yeast microsomes containing CYP83B1) was “typical type IIa binding spectrum”.

For `ON=CCc1c[nH]c2ccccc12` [indole-3-acetaldoxime], the “turnover (number)” value ([5]; in the presence of cysteine, 2.2 nM CYP83B1, 1 min at 28 °C) was 53 min⁻¹ and the “type of binding spectrum caused” value [6] was “weak reverse type I spectrum”.

B1: CYP83B1 (Arabidopsis thaliana) (protein)
chain: T3 sequence (O65782 1-499)
In the case of B1, the Km [7] is reported as 3 µM.

Source: patent US20070130640A1, “Methods of modulating auxin production in plants” (priority 2005, published 2007)
